Species on record: Rattus norvegicus
Assay: Open TG-GATES - Regimen: Daily Repeat
Format: toxicity, organism-based, Sprague-Dawley
Set-up: regimen Daily Repeat, gender Male, age 6 weeks
Settings: in vivo, po, 25 mg/kg, route gavage, dose level Middle; for APTT / Bas / Eos / Fbg / Hb / Ht / Lym / MCH / MCHC / MCV / Mono / Neu / PT / Plat / RBC / Ret / WBC: tissue Blood; for KIDNEY_L / KIDNEY_R / KIDNEY_TOTAL: tissue Kidney; for LIVER: tissue Liver; for A/G / ALP / ALT / AST / BUN / CRE / Ca / Cl / DBIL / GLC / IP / K / LDH / Na / PL / RALB / TBIL / TC / TG / TP / gamma-GTP: tissue Plasma

Structure (SMILES): NC1=NC(=O)C(c2ccccc2)O1 (configuration not stated) [PEMOLINE]
- TERMINAL_BW (72 h, time 3 day): 222.4 g
- APTT (72 h, time 3 day): 16.7 s
- Bas (72 h, time 3 day): 0%
- Eos (72 h, time 3 day): 1%
- Fbg (72 h, time 3 day): 288.4 mg/dL
- Hb (72 h, time 3 day): 13.3 g/dL
- Ht (72 h, time 3 day): 39%
- Lym (72 h, time 3 day): 76.2%
- MCH (72 h, time 3 day): 21.3 pg
- MCHC (72 h, time 3 day): 33.9%
- MCV (72 h, time 3 day): 62.6 fL
- Mono (72 h, time 3 day): 3%
- Neu (72 h, time 3 day): 19.4%
- PT (72 h, time 3 day): 13 s
- Plat (72 h, time 3 day): 109.7 x10_4/uL
- RBC (72 h, time 3 day): 623.8 x10_4/ul
- Ret (72 h, time 3 day): 6.1%
- WBC (72 h, time 3 day): 79.9 x10_2/uL
- KIDNEY_L (72 h, time 3 day): 1 g
- KIDNEY_R (72 h, time 3 day): 0.9 g
- KIDNEY_TOTAL (72 h, time 3 day): 1.9 g
- LIVER (72 h, time 3 day): 9.9 g
- A/G (72 h, time 3 day): 0.9
- ALP (72 h, time 3 day): 1654.8 IU/L
- ALT (72 h, time 3 day): 41.8 IU/L
- AST (72 h, time 3 day): 72.6 IU/L
- BUN (72 h, time 3 day): 13.8 mg/dL
- CRE (72 h, time 3 day): 0.2 mg/dL
- Ca (72 h, time 3 day): 10.7 mg/dL
- Cl (72 h, time 3 day): 105.8 meq/L
- DBIL (72 h, time 3 day): 0.018 mg/dL
- GLC (72 h, time 3 day): 177.4 mg/dL
- IP (72 h, time 3 day): 7.5 mg/dL
- K (72 h, time 3 day): 4.1 meq/L
- LDH (72 h, time 3 day): 54.2 IU/L
- Na (72 h, time 3 day): 142.2 meq/L
- PL (72 h, time 3 day): 130.6 mg/dL
- RALB (72 h, time 3 day): 2.6 g/dL
- TBIL (72 h, time 3 day): 0.03 mg/dL
- TC (72 h, time 3 day): 79.8 mg/dL
- TG (72 h, time 3 day): 40 mg/dL
- TP (72 h, time 3 day): 5.4 g/dL
- gamma-GTP (72 h, time 3 day): 1 IU/L
- TERMINAL_BW ([…], time 7 day): 260.2 g
- TERMINAL_BW ([…], time 14 day): 319 g
- TERMINAL_BW ([…], time 28 day): 384.9 g
- APTT ([…], time 7 day): 15.8 s
- Bas ([…], time 7 day): 0%
- Eos ([…], time 7 day): 1%
- Fbg ([…], time 7 day): 268.6 mg/dL
- Hb ([…], time 7 day): 13.4 g/dL
- Ht ([…], time 7 day): 39.5%
- Lym ([…], time 7 day): 73.4%
- MCH ([…], time 7 day): 20.9 pg
- MCHC ([…], time 7 day): 34%
- MCV ([…], time 7 day): 61.5 fL
- Mono ([…], time 7 day): 3%
- Neu ([…], time 7 day): 21.8%
- PT ([…], time 7 day): 13.1 s
- Plat ([…], time 7 day): 116 x10_4/uL
- RBC ([…], time 7 day): 642.2 x10_4/ul
- Ret ([…], time 7 day): 5.8%
- WBC ([…], time 7 day): 107.7 x10_2/uL
- APTT ([…], time 14 day): 16.6 s
- Bas ([…], time 14 day): 0%
- Eos ([…], time 14 day): 1%
- Fbg ([…], time 14 day): 294.2 mg/dL
- Hb ([…], time 14 day): 14.7 g/dL
- Ht ([…], time 14 day): 42.4%
- Lym ([…], time 14 day): 78.8%
- MCH ([…], time 14 day): 21.3 pg
- MCHC ([…], time 14 day): 34.7%
- MCV ([…], time 14 day): 61.3 fL
- Mono ([…], time 14 day): 2.6%
- Neu ([…], time 14 day): 17.2%
- PT ([…], time 14 day): 13.1 s
- Plat ([…], time 14 day): 114.8 x10_4/uL
- RBC ([…], time 14 day): 692.2 x10_4/ul
- Ret ([…], time 14 day): 4.6%
- WBC ([…], time 14 day): 86.6 x10_2/uL
- APTT ([…], time 28 day): 17.9 s
- Bas ([…], time 28 day): 0.6%
- Eos ([…], time 28 day): 1%
- Fbg ([…], time 28 day): 269 mg/dL
- Hb ([…], time 28 day): 15.9 g/dL
- Ht ([…], time 28 day): 44.1%
- Lym ([…], time 28 day): 80%
- MCH ([…], time 28 day): 20.6 pg
- MCHC ([…], time 28 day): 36.1%
- MCV ([…], time 28 day): 57.1 fL
- Mono ([…], time 28 day): 2.4%
- Neu ([…], time 28 day): 15.2%
- PT ([…], time 28 day): 12.7 s
- Plat ([…], time 28 day): 109.5 x10_4/uL
- RBC ([…], time 28 day): 771.4 x10_4/ul
- Ret ([…], time 28 day): 2.6%
- WBC ([…], time 28 day): 116.8 x10_2/uL
- KIDNEY_L ([…], time 7 day): 1.1 g
- KIDNEY_R ([…], time 7 day): 1.1 g
- KIDNEY_TOTAL ([…], time 7 day): 2.3 g
- KIDNEY_L ([…], time 14 day): 1.3 g
- KIDNEY_R ([…], time 14 day): 1.3 g
- KIDNEY_TOTAL ([…], time 14 day): 2.5 g
- KIDNEY_L ([…], time 28 day): 1.4 g
- KIDNEY_R ([…], time 28 day): 1.3 g
- KIDNEY_TOTAL ([…], time 28 day): 2.7 g
- LIVER ([…], time 7 day): 11.6 g
- LIVER ([…], time 14 day): 14 g
- LIVER ([…], time 28 day): 14.4 g
- A/G ([…], time 7 day): 0.9
- ALP ([…], time 7 day): 1546.6 IU/L
- ALT ([…], time 7 day): 44.4 IU/L
- AST ([…], time 7 day): 75.6 IU/L
- BUN ([…], time 7 day): 15.6 mg/dL
- CRE ([…], time 7 day): 0.2 mg/dL
- Ca ([…], time 7 day): 10.4 mg/dL
- Cl ([…], time 7 day): 104.4 meq/L
- DBIL ([…], time 7 day): 0.016 mg/dL
- GLC ([…], time 7 day): 179 mg/dL
- IP ([…], time 7 day): 8 mg/dL
- K ([…], time 7 day): 4.2 meq/L
- LDH ([…], time 7 day): 75.6 IU/L
- Na ([…], time 7 day): 142 meq/L
- PL ([…], time 7 day): 141.6 mg/dL
- RALB ([…], time 7 day): 2.5 g/dL
- TBIL ([…], time 7 day): 0.024 mg/dL
- TC ([…], time 7 day): 73.4 mg/dL
- TG ([…], time 7 day): 117.8 mg/dL
- TP ([…], time 7 day): 5.4 g/dL
- gamma-GTP ([…], time 7 day): 1 IU/L
- A/G ([…], time 14 day): 0.8
- ALP ([…], time 14 day): 1343.2 IU/L
- ALT ([…], time 14 day): 46.6 IU/L
- AST ([…], time 14 day): 72.2 IU/L
- BUN ([…], time 14 day): 16.8 mg/dL
- CRE ([…], time 14 day): 0.2 mg/dL
- Ca ([…], time 14 day): 11.2 mg/dL
- Cl ([…], time 14 day): 105.2 meq/L
- DBIL ([…], time 14 day): 0.014 mg/dL
- GLC ([…], time 14 day): 182.6 mg/dL
- IP ([…], time 14 day): 8.7 mg/dL
- K ([…], time 14 day): 4 meq/L
- LDH ([…], time 14 day): 68.4 IU/L
- Na ([…], time 14 day): 144.2 meq/L
- PL ([…], time 14 day): 158.6 mg/dL
- RALB ([…], time 14 day): 2.7 g/dL
- TBIL ([…], time 14 day): 0.022 mg/dL
- TC ([…], time 14 day): 83.6 mg/dL
- TG ([…], time 14 day): 119.4 mg/dL
- TP ([…], time 14 day): 6 g/dL
- gamma-GTP ([…], time 14 day): 1 IU/L
- A/G ([…], time 28 day): 0.8
- ALP ([…], time 28 day): 1018.2 IU/L
- ALT ([…], time 28 day): 37.8 IU/L
- AST ([…], time 28 day): 66.8 IU/L
- BUN ([…], time 28 day): 16.6 mg/dL
- CRE ([…], time 28 day): 0.2 mg/dL
- Ca ([…], time 28 day): 11.2 mg/dL
- Cl ([…], time 28 day): 105.2 meq/L
- DBIL ([…], time 28 day): 0.016 mg/dL
- GLC ([…], time 28 day): 179.4 mg/dL
- IP ([…], time 28 day): 7.5 mg/dL
- K ([…], time 28 day): 3.9 meq/L
- LDH ([…], time 28 day): 76.8 IU/L
- Na ([…], time 28 day): 143.4 meq/L
- PL ([…], time 28 day): 134.4 mg/dL
- RALB ([…], time 28 day): 2.7 g/dL
- TBIL ([…], time 28 day): 0.03 mg/dL
- TC ([…], time 28 day): 71.6 mg/dL
- TG ([…], time 28 day): 134.8 mg/dL
- TP ([…], time 28 day): 6.2 g/dL
- gamma-GTP ([…], time 28 day): 1 IU/L
